Measurements from patent EP3569229A1, “PROPHYLACTIC AND/OR THERAPEUTIC AGENT FOR DISEASES ASSOCIATED WITH AMPA RECEPTORS” (Public University Corporation Yokohama City University, priority 2017, dated 2018).

What was measured:
AMPA receptors [1] = experiment: AMPA receptor binding test (electrophysiological verification, whole-cell recording of AMPA current in acute hippocampal section); type: cell-based, SD rats; details: pyramidal cell in CA1, compound administered for 15 minutes, Fig. 2
Procedure: Male SD rats which were 7 to 8 weeks old were used. The rat was decapitated under anesthesia with isoflurane, and an acute brain section which included the hippocampus and whose thickness was 400 µm was produced with a vibratome (VT1000; Leica Camera AG). The section was left in the ACSF at room temperature for 60 minutes, and then an AMPA current was measured by a whole-cell recording method. Under conditions in which the ACSF was refluxed at a rate of 3 ml/minute, only the AMPA current was isolated by administration of picrotoxin and APV. An exciting electrode was placed on a Schaffer fiber, and a recording electrode was placed on a pyramidal cell in CA1. The whole-cell recording was performed with a potential fixed to -80 mV, and a stimulus of 100 microseconds was applied every 30 seconds. The AMPA current in a ground state was recorded for 5 minutes, then K-2 or K-4 was administered for 15 minutes and thereafter the AMPA current was recorded for 30 minutes. When the section was left and when the section was refluxed, the ACSF was saturated with 95% O2/5% CO2 and was then used, and the composition of the ACSF was as follows; 119 mM NaCl, 2.5 mM KCl, 2.5 mM CaCl2, 1.5 mM MgSO4, 26 mM NaHCO3 and 1 mM NaH2PO4. […]

AMPA receptors [2] = experiment: AMPA receptor binding test (in vitro autoradiography method); set-up: species or system SD rats; details: acute rat brain section including the striatum; [^11C] K-2; Fig. 1
Procedure: As rats, adult male SD rats (Charles River, Japan) which were […] were used. An acute brain section which included the striatum and whose thickness was 200 µm was produced, was placed on a cell strainer and was left in an oxygenated ACSF (artificial cerebrospinal fluid) for 60 minutes. 12 ml of 100 µM PEPA (ACSF containing 1% DMSO) was adjusted, and [^11C] K-2 was added thereto so as to achieve 20 nM, and the resultant solution was left for 60 minutes. After the reaction, the resultant solution was washed with the ACSF for 10 seconds three times, and was finally washed with distilled water for 10 seconds. The cell strainer was cut out so as to be slightly larger than the brain section after the reaction, and was exposed to an imaging plate for 2 hours. The imaging plate after the exposure was imaged with Typhoon (GE Healthcare Japan) (resolution of 25 pixels).

WKY rat = experiment: Forced swimming test using rat; type: in vivo; details: acute administration, intravenous, 30 minutes before test; 1.0 mg/kg; Figs. 8, 9 and 10
Procedure: In a forced swimming test, AMPA receptor-binding compounds K-2 and K-4 were dissolved in 100% DMSO (Nacalai Tesque, Inc. Japan) so as to have a concentration of 2.1 mM, were diluted with saline immediately before being administered (15% DMSO, 320 µM) and were intravenously administered to the rat with an administered amount of 5 µl/weight (g) such that the administered amount fell within a range of 1 mg/kg to 1.5 mg/kg.
In all animal experiments, the deliberation and the approval of the animal experiment committee in Yokohama City University were received (approval number: F-A-15-051). As rats, adult male Wistar rats which were 6 to 10 weeks old and Wistar Kyoto rats (WKY rats) which were depression model rats (Charles River, Japan) were used. In order to acquire a route for the repeated administration of K-2, a jugular vein cannula indwelling surgery was performed a week before the experiment. The rat was made to fall sleep with isoflurane (DS Pharma Animal Health, Japan), and thereafter while anesthesia was maintained at an isoflurane concentration of 1.5% (air 2 L/minute), the jugular vein cannula indwelling surgery was performed. The skin of the neck was incised about 3 cm such that subcutaneous fat was opened, and thus the jugular vein was exposed. A needle to which a cannula tube was fitted was made to penetrate the jugular vein, then the cannula tube was removed from the needle and the tip of the cannula tube was inserted 2.5 cm into the jugular vein so as to be fixed near the insertion portion with sutures. The opposite side of the cannula tube was exposed to the outside of the body through the back of the rat, a plug was fitted so as to prevent backflow and the opened skin was sutured. After the completion of the surgery, the rat was returned to a home cage.
The forced swimming test was performed in a pre-administration experiment on the day before the administration of the drug, in an acute administration experiment on the first day of the administration of the drug and in a chronic administration experiment on the seventh day of the administration of the drug. […]

Kd (AMPA receptors [2]) [nM]	Compound	binding affinity to the AMPA receptors (AMPA receptors [1])	immobility time (WKY rat)
	CN(C)C(=O)COc1c(F)cc(SCCN(C)S(=O)(=O)c2ccccc2)cc1F [K-4, {4-[2-(benzenesulfonyl-methyl-amino)-ethylsulfanil]-2,6-difluoro-phenoxy}-N,N-dimethyl-acetamide]	indicated binding affinity	
47.9	CN(CCSc1cc(F)c(OCC(N)=O)c(F)c1)S(=O)(=O)c1ccccc1 [K-2, {4-[2-(benzenesulfonyl-methyl-amino)-ethylsulfanil]-2,6-difluoro-phenoxy}-acetamide]	indicated binding affinity	
	CNC(=O)COc1c(F)cc(SCCN(C)S(=O)(=O)c2ccccc2)cc1F [K-32, {4-[2-(benzenesulfonyl-methyl-amino)-ethylsulfanil]-2,6-difluoro-phenoxy}-N-methyl-acetamide]		tendency that the immobility time was lower
	CCN(CC)C(=O)COc1c(F)cc(SCCN(C)S(=O)(=O)c2ccccc2)cc1F [K-30, {4-[2-(benzenesulfonyl-methyl-amino)-ethylsulfanil]-2,6-difluoro-phenoxy}-N,N-diethyl-acetamide]		tendency that the immobility time was lower
	CN(C)C(=O)COc1c(F)cc(SCCN(C)S(=O)(=O)c2ccc(F)cc2)cc1F [K-26, {4-[2-(4-fluoro-benzenesulfonyl-methyl-amino)-ethylsulfanil]-2,6-difluoro-phenoxy}-N,N-dimethyl-acetamide]		tendency that the immobility time was lower
